Laboratory results reported in patent US12544371B2, “Methods and compositions for treating acute lung injury and acute respiratory distress syndrome” (CalciMedica, Inc., priority 2020, dated 2026).
Where two headings read alike, the source gives them in different places.

Tests used:
[1] = Rat model of acute pancreatitis (caerulein-induced), IV infusion; type: in vivo
3T3 = assay: In vitro 3T3 phototoxicity; type: cell-based
[2] = Phase 1 single ascending dose study (Compound 1 Test 101), healthy subjects; type: in vivo, human
From the text: Two Phase 1 studies of N-(5-(6-Chloro-2,2-difluorobenzo[d][1,3]dioxol-5-yl)pyrazin-2-yl)-2-fluoro-6-methylbenzamide (Compound 1) have been conducted in healthy subjects: a single ascending dose (SAD) study (Compound 1 Test 101) and a multiple ascending dose (MAD) study (Compound 1 Test 102). In Compound 1 Test 101 (Table 1), 32 healthy subjects were enrolled in five groups and randomized in a 3:1 ratio to receive a single dose of active versus placebo. The dose levels for each group are noted in Table 1. The dose volume of the emulsion was fixed at 1.3 mL/kg for all subjects in the SAD study groups, and an injectable emulsion of Compound 1 or placebo was administered via a 4-hour IV infusion.
Plasma concentrations of compound rise steadily during the 4-hour infusion, with Tmax achieved at the end of infusion (4 hours). After the end of infusion, there is a rapid and prominent distribution phase followed by a prolonged period of residual drug levels. The terminal elimination phase has not yet been fully characterized as it appears to be much longer than was anticipated based on pre-clinical PK data in mouse, rat, dog and monkey. Plasma concentrations during the terminal phase are approximately 5% of Cmax values and, as indicated above, to date there have been no clinically significant AEs reported during this phase. Plasma exposures, defined by AUC0-24 h, appear to be dose-proportional and reached a maximum of 6710 ng*h/mL in Group 5, which is 4.3-fold below the mean AUC24 h in monkey at the NOAEL (29,000 ng*hr/mL).

[3] = Phase 1 multiple ascending dose study (Compound 1 Test 102), healthy subjects; conditions: for AUC(0-t) / Cmax: human, plasma, intravenous
Method: One of the subjects received placebo at the maximum dose volume of emulsion, 1.3 mL/kg, for 7 days, whereas all others were dosed on a weight-based adjustment of dose volume.

[4] = Cardiovascular safety in telemetered cynomolgus monkey; type: in vivo
From the text: (§1) Compound 1 is a non-limiting example of a composition described herein that inhibits calcium release-activated calcium (CRAC) channels).

[5] = Animal models of acute pancreatitis and lung injury (general statements); type: in vivo
From the text: Preclinical data supports the use of CRAC inhibitors (e.g. N-(5-(6-Chloro-2,2-difluorobenzo[d][1,3]dioxol-5-yl)pyrazin-2-yl)-2-fluoro-6-methylbenzamide, Compound 1) in severe COVID-19 pneumonia.
For example, Compound 1 was effective following i.p. injection in mice (Wen et al., Gastroenterol, 149: 481-492, 2015), and following 4-hour i.v. infusion in rats (Waldron et al., J Physiol, 597.12: 3085-3105, 2019).

[6] = Long-term extension study of SAD and MAD subjects; type: in vivo, human
From the text: Subjects in Groups 4 and 5 of the SAD study and Groups 1 and 2 of the MAD study who received Compound 1 were followed for 1 year in a long-term extension study to assess for adverse events and serious adverse events. In addition, PK levels were drawn in all 4 groups on Day 270 to further characterize the terminal phase and the prolonged period of residual drug level.

[7] = test system: IL-2 release by human PBMCs; assay: IL-2 release by human PBMCs, isolated cell assay; type: cell-based; conditions: PBMC, SEM (n), read-out: Compound 1 IC50, IL-2 release by human PBMCs
From the text: (§2) CRAC channels may play a proximal role in a calcium-calcineurin pathway leading to cytokine release in immune cells.

[8] = Safety pharmacology studies in rats; type: in vivo
From the text: as §1

[9] = In vivo micronucleus study (bone marrow micronucleus and liver Comet assays); conditions: rats
[10] = test system: IL-10 released from human PBMCs; assay: Cytokine released from human PBMCs: IL-10; type: cell-based; conditions: PBMC, mean of replicates
From the text: as §2

[11] = test system: TNFα released from human PBMCs; assay: Cytokine released from human PBMCs: TNFα; type: cell-based
From the text: as §2

[12] = test system: CRAC channel-dependent stimulated IL-2 secretion; assay: Ex vivo whole blood PD assay of CRAC channel-dependent IL-2 release (Test 202); type: in vivo, human
Method: In Compound 1 Test 202, a pharmacodynamic and pharmacokinetic study of Compound 1 in patients with acute pancreatitis, patients with AP (regardless of the presence of SIRS and/or hypoxemia) were administered a single IV infusion of 2.08 mg/kg of an injectable emulsion of Compound 1 and blood, plasma and serum were collected for analysis. It was planned to initially enroll 5 patients and then to enroll an additional 4 patients as needed. Ultimately, 7 patients were screened for the study, and all 7 enrolled in and completed the study. On Days 1 and 2, blood and plasma samples for PD and PK analyses, respectively, were obtained 30 minutes after completing the administration of Compound 1 and 24 hours from the start of the administration of Compound 1. In patients hospitalized at Day 5 and 10, blood and plasma samples were obtained; if discharged earlier, samples were obtained at the time of discharge. After discharge, patients returned to the hospital on Day 30 to provide final blood and plasma samples.
An intravenous formulation of a CRAC inhibitor comprising Compound 1 allowed rapid delivery and onset of action when a single 2.08 mg/kg dose was given in human patients with acute pancreatitis (AP). Ex vivo whole blood pharmacodynamic (PD) assays of CRAC channel-dependent IL-2 release were performed.

## Cc1cccc(F)c1C(=O)Nc1cnc(-c2cc3c(cc2Cl)OC(F)(F)O3)cn1 [Compound 1, N-(5-(6-Chloro-2,2-difluorobenzo[d][1,3]dioxol-5-yl)pyrazin-2-yl)-2-fluoro-6-methylbenzamide]
[1]
  lung myeloperoxidase activity (neutrophil infiltration): decrease
  mRNA levels of the cytokines TNFα and IL-6 (lung): decrease
3T3
  phototoxicity, in vitro 3T3: potentially phototoxic
[2]; SAD Group 5
  margin of AUC0-24 h below mean AUC24 h in monkey at the NOAEL: 4.3 fold
[2]; human, in vivo
  Tmax: 4 h
  cardiac function: heart rate, QTcF, cardiac troponin-T, B-type natriuretic peptide: no evidence of any treatment related effect
  clinically significant laboratory abnormalities: No laboratory abnormalities
  distribution compartments, non-compartmental PK analysis: three compartments
  dose proportionality of plasma exposure (AUC0-24 h): dose-proportional
  number of clinical AEs (all mild): three
  plasma concentrations during the terminal phase relative to Cmax: approximately 5 % of Cmax
  systolic or diastolic blood pressure: no evidence of any sustained treatment related increase
[2]; human, in vivo, 2.1 mg/kg
  AUC(0-t): 6710 ng·h/mL
[3]; MAD Group 1, 0.5 mg/kg
  Cmax accumulation: 1.6 fold
  increase in systemic exposure (AUC24 h), Day 7 compared to Day 1: 2.6 fold
  margin of Day 7 AUC24 h below NOAEL AUC24 h in monkey: 9.1 fold
[3]; MAD Group 2, 1.0 mg/kg
  Cmax accumulation: 1.4 fold
  increase in AUC24 h, Day 7 compared to Day 1: 2.6 fold
  margin of Day 7 AUC24 h below NOAEL AUC24 h in monkey: 4.2 fold
[3]; MAD group 1
  clinically significant laboratory abnormalities: No laboratory abnormalities
[3]; MAD group 1, 0.50 mg/kg daily for 7 days
  SAEs and AEs classified as moderate or severe: no SAEs and no AEs classified as moderate or severe in intensity
[3]; MAD group 1, eight subjects incl. placebo
  number of clinical AEs (all mild): 15
[3]; MAD group 2
  clinically significant laboratory abnormalities: No laboratory abnormalities
[3]; MAD group 2, 1.0 mg/kg daily for 7 days
  SAEs and AEs classified as moderate or severe: no SAEs and no AEs classified as moderate or severe in intensity
[3]; MAD group 2, eight subjects incl. placebo
  number of AEs (all mild): three
[3]; MAD, both groups
  cardiac function: heart rate, QTcF, B-type natriuretic peptide: no evidence of any sustained treatment related effect
  systolic or diastolic blood pressure: no evidence of any sustained treatment related increase
[3]; 0.5 mg/kg
  AUC(0-t): 3190 ng·h/mL
  Cmax: 363 ng/mL
[3]; 1 mg/kg
  AUC(0-t): 6830 ng·h/mL
  Cmax: 637 ng/mL
[4]; 1, 3 and 10 mg/kg, also seen in placebo treated animals
  cardiovascular data at lower doses: transient, non-dose-related, slight-to-moderate increases in systolic/diastolic arterial blood pressures and negative chronotropic effects (mild and non-adverse)
[4]; single telemetered cynomolgus monkey, 25 mg/kg IV
  clinical and cardiovascular effects: Dose-limiting adverse clinical and cardiovascular effects
[5]
  cytokines and neutrophil infiltration in lung tissue: inhibit
[6]; 365 days
  number of mild AEs in the extension study: 1
[6]; healthy subjects followed for 365 days
  serious adverse events and adverse events rated moderate or severe, long-term follow-up: safe and no serious adverse events and no adverse events rated moderate or severe in intensity and no SAEs or AEs rated moderate or severe in intensity
[7]
  IC50: 10 ± 0.4 nM
[8]
  adverse effects on central nervous or respiratory systems: no adverse effects
[9]
  DNA reactivity, bone marrow micronucleus and liver Comet assays: no evidence of DNA reactivity
[10]
  IC50: 303 nM
[11]; Homo sapiens, PBMC, mean of replicates, read-out: Mean IC50, TNFα released from human PBMCs
  IC50: 225 nM
[11]; Homo sapiens, PBMC, single replicates, read-out: Replicate IC50 values, TNFα released from human PBMCs
  IC50: 278 nM
[11]; single replicates, read-out: Replicate IC50 values, TNFα released from human PBMCs
  IC50: 173 nM
[12]; Homo sapiens, at or near Cmax, single 2.08 mg/kg IV
  inhibition at 2.08 mg/kg: ~57%
[12]; after Cmax
  time over which the inhibitory effect dissipated: 1 to 2 days
[12]; after the end of the infusion
  recovery of IL-2 production: 24 h
[12]; at the end of the infusion
  decrease of IL-2 production: > 50%
[12]; peak at the end of a 4-hour infusion
  onset of action, IL-2 release inhibition: rapid onset of action
